Experimental findings from patent US20250382279A1, “COMPOUNDS AND METHODS FOR YAP/TEAD MODULATION AND INDICATIONS THEREFOR” (OPNA BIO SA, priority 2023, published 2025) are described below.

What is called IC50 is the point on the concentration scale where inhibition reaches its midpoint.

For the experiment, the system named is TEAD-dependent transcription. Nature of the experiment: Inhibitor activity against TEAD-dependent transcription in a cell-based reporter assay (MSTO-211H+12XGTIIC luciferase). The conditions noted are these: Homo sapiens; MSTO-211H+12XGTIIC cell line, 24 hours compound incubation, luminescence normalized to cell viability fluorescence; read-out: MSTO-211H GMean IC50 (uM) Cell Assay Reporter Cell Variant: TEAD. An excerpt:
Determine Inhibitor Activity Against TEAD-Dependent Transcription in a Cell-Based Reporter Assay
The human mesothelioma cell line MSTO-211H was stably transfected with a pGL4.21 plasmid containing a synthetic promoter with 12 copies of the GTIIC TEAD response element that drives the expression of a luciferase reporter gene^1 using Lipofectamine transfection reagent (Thermno Fisher). Transfected cells were selected using puromycin and single cell clones expressing this construct (referred to as MSTO-211H+12XGTIIC) were generated by limiting dilution. MSTO-211H cells was characterized by genetic alterations in key components of the Hippo pathway^2, resulting in up-regulation of YAP/TEAD-mediated transcription. […] To evaluate TEAD inhibitors, the MSTO-211H+12XGTIIC cell line was seeded in a 96-well plate in 50 μL of culture media at 1×10^4 cells per well and incubated at 37° C. overnight. Serial dilutions of compounds (in total volume of 50 μL of culture media) were added to the cells and incubated at 37° C. for 24 hours. Each plate included cells treated with DMSO as high controls and cells treated with 20 μM of the reference compound K-975 (a known TEAD inhibitor)^3 as low controls. Cell viability was assayed by the addition of 25 μL of CellTiter-Fluor reagent (Promega) followed by a 30-minute incubation at 37° C. and quantification of the fluorescence signal (Ex400/Em505). Subsequently, luciferase expression was assayed by the addition of 25 μL of ONE-Glo reagent (Promega) followed by a 10-minute incubation at room temperature and quantification of the luminescence signal. The luminescence signal was normalized to the fluorescence signal to correct for any loss in cell viability over the 24-hour compound incubation period. The percentage of inhibition of normalized luminescence signal, indicative of compound-mediated inhibition of TEAD-dependent transcription, at individual compound concentrations relative to high and low controls was calculated. The data were analyzed by using nonlinear regression to generate IC50 values for individual compounds.
Background: In a reporter assay the amount or activity of a reporter protein is the signal.

Consider `O=C1c2cccc(Oc3ccc(C(F)(F)F)cc3)c2CCN1c1cccc(C(F)(F)F)c1` [O-0003, 5-(4-(trifluoromethyl)phenoxy)-2-(3-(trifluoromethyl)phenyl)-3,4-dihydroisoquinolin-1(2H)-one], for which the IC50 was 0.001 to 10 µM.
Consider `O=C1c2cc(Oc3ccc(C(F)(F)F)cc3)ccc2CCN1c1ccc2nc(C(F)(F)F)[nH]c2c1` [O-0045, 2-(2-(trifluoromethyl)-1H-benzo[d]imidazol-6-yl)-7-(4-(trifluoromethyl)phenoxy)-3,4-dihydroisoquinolin-1(2H)-one], for which the IC50 is 0.001 to 10 µM.
In the case of `C=CC(=O)Nc1cccc(N2CCc3c(Oc4ccc(C(F)(F)F)cc4)cccc3C2=O)c1` [O-0012, N-(3-(1-oxo-5-(4-(trifluoromethyl)phenoxy)-3,4-dihydroisoquinolin-2(1H)-yl)phenyl)acrylamide], the IC50 is 0.001 to 10 µM.
The result for `C=CC(=O)Nc1ccc(N2CCc3c(Oc4ccc(C(F)(F)F)cc4)cccc3C2=O)cc1` [O-0013, N-(4-(1-oxo-5-(4-(trifluoromethyl)phenoxy)-3,4-dihydroisoquinolin-2(1H)-yl)phenyl)acrylamide] reads 0.001 to 10 µM; that for `O=C1c2cccc(Oc3ccc(C(F)(F)F)cc3)c2CCN1C1CCN(S(=O)(=O)C(F)(F)F)CC1` [O-0020, 5-(4-(trifluoromethyl)phenoxy)-2-(1-((trifluoromethyl)sulfonyl)piperidin-4-yl)-3,4-dihydroisoquinolin-1(2H)-one], 0.001 to 10 µM.
To `O=C1c2cc(Oc3ccc(C(F)(F)F)cc3)ccc2CCN1c1ccc2nc(C(F)(F)F)sc2c1` [O-0046, 2-(2-(trifluoromethyl)benzo[d]thiazol-6-yl)-7-(4-(trifluoromethyl)phenoxy)-3,4-dihydroisoquinolin-1(2H)-one] belongs 0.001 to 10 µM; to `O=C1c2cccc(Oc3ccc(C(F)(F)F)cc3)c2CCN1c1cccc(S(=O)(=O)C(F)(F)F)c1` [O-0005, 5-(4-(trifluoromethyl)phenoxy)-2-(3-((trifluoromethyl)sulfonyl)phenyl)-3,4-dihydroisoquinolin-1(2H)-one], 0.001 to 10 µM; to `O=C1c2cc(Oc3ccc(C(F)(F)F)cc3)ccc2CCN1c1cccc(-c2nccs2)c1` [O-0038, 2-(3-(thiazol-2-yl)phenyl)-7-(4-(trifluoromethyl)phenoxy)-3,4-dihydroisoquinolin-1(2H)-one], 0.001 to 10 µM.
